The values that follow come from paper PMC11589570, “Critical assessment of LC3/GABARAP ligands used for degrader development and ligandability of LC3/GABARAP binding pockets” (Nature Communications, 2024).

The test system of data set [1] is LC3/GABARAPs (human Atg8 family). Description: FP assay with Cy5-labelled p62 LIR tracer, statements on all LC3/GABARAPs. The data set is classed as binding.
The target of data set [2] is T1, LC3A (Homo sapiens, UniProt Q9H492). As to the kind of experiment: Spectral shift assay (Dianthus), cysteine-labelled protein. In kind it is binding. As to conditions: Repeat 1 and Repeat 2, listed as 10O5 (4). The protocol:
Affinity determination using spectral shift mode on Dianthus: To determine dissociation constants, the Dianthus instrument (NanoTemper Technologies GmbH, Germany) was used to monitor molecular interactions. […] Protein was labelled with RED-maleimide 2nd Generation (cat# MO-L014; NanoTemper Technologies GmbH). Labeling was carried out following the manufacturer protocol, using a 3:1 ratio dye:protein. […] Protein was purified in 30 mM HEPES, 100 mM NaCl, 0.05% Tween, pH 7.5. […] Measurements were performed in spectral shift mode with an LED excitation power of 100%. Data were analyzed using the DI.Screening Analysis Software (v.2.0.4) (NanoTemper Technologies GmbH, Germany) and quality criteria values including Δ Ratio, Signal-to-Noise-Ratio, Fit Saturation and KD values were determined.

Data set [3] deals with T2, NanoLuc-fusion full-length LC3A (Homo sapiens, UniProt Q9H492).
T2 construct: a fluorescent donor (in this case full length LC3A and LC3B); expressed in transfected cells; host or cells: HEK293T (ATCC; CRL-11268)
As to the kind of experiment: NanoBRET cellular target engagement assay in HEK293T cells. The data set is classed as cell-based. Particulars: LC3A; 1 µM tracer; compound 4 for tracer 16, compound 3 for tracer 17. The procedure:
(§1) NanoBRET cellular target engagement assay: Constructs contained the cDNA of full-length LC3A and LC3B cloned in frame with an N-terminal NanoLuc-fusion. Plasmids were transfected into HEK293T (ATCC; CRL-11268) cells using FuGENE HD (Promega, E2312) and proteins were allowed to express for 20 h. 10O5 and 8F20-based tracers were titrated to the protein as depicted in Supplementary Fig. 4d. For competition experiments, 1 µM of the tracers was pipetted into white 384-well plates (Greiner 781 207) using an Echo 550 acoustic dispenser (Labcyte) containing LC3A/LC3B expressing transfected cells at a density of 2.5 × 10^5 cells/mL in Opti-MEM without phenol red (Life Technologies). The system was allowed to equilibrate for 2 h at 37 °C and 5% CO2 prior to BRET measurements. To measure BRET, NanoBRET NanoGlo Substrate + Extracellular NanoLuc Inhibitor (Promega, N2540) was added as per the manufacturer’s protocol, and filtered luminescence was measured on a PHERAstar plate reader (BMG Labtech) equipped with a luminescence filter pair (450 nm BP filter (donor) and 610 nm LP filter (acceptor)). Competitive displacement data were then plotted using GraphPad Prism 9.3 software using a normalized 3-parameter curve fit. A detailed step-by-step protocol for this assay is described in Schwalm..

Data set [4] deals with T3, NanoLuc-fusion full-length LC3B (Homo sapiens, UniProt Q9GZQ8).
T3 construct: a fluorescent donor (in this case full length LC3A and LC3B); expressed in transfected cells; host or cells: HEK293T (ATCC; CRL-11268)
The description is as above. In kind it is cell-based. Particulars: LC3B; 1 µM tracer; compound 4 for tracer 16, compound 3 for tracer 17. The procedure:
as §1

Data set [5] in a line: Cell viability measurements. Particulars: two replicate columns; for Cell viability: listed as 10O5. Further details: Cell viability: scale not given here. The data set is classed as cell-based. The text has this:
1 Source data for Supplementary Fig. 8a-f are provided as a Source Data file.

Data set [6] has as its target T1, LC3A. Description: FP assay with 10O5- and 8F20-based dye-linked tracers 16 and 17. As to conditions: LC3A; compound 3 for tracer 17, compound 4 for tracer 16.
Description: The only experimental difference in our FP assay setup was the addition of 0.05% Tween-20, which is routinely used[27] to suppress unspecific binding of compounds to proteins.
Fluorescence polarization assay utilizing tracers 16 and 17 for interaction studies with LC3A
(upper panels) and LC3B (lower panels). The left panels depict protein titration measurements
detergent in the buffer to suppress unspecific binding. Middle panels depict displacement
Data were collected in technical
triplicates with error bars expressing the SD (n=3).

SMILES strings stand for the structures. Where “and” joins values, the source holds several entries; their conditions need not be identical. Identical values can stand only once.

What is called viability is a read-out of living cells in per cent, often relative to untreated cells. Take `O=C1Nc2ccc(I)cc2C1=Cc1cc(Br)c(O)c(Br)c1` [compound 4]: in data set [1], the “interaction with LC3/GABARAP family members in FP displacement assay” value was “weak interaction of 10O5 (4) with GABARAP family members”. Moreover, the “Initial Fluorescence” value was 5485.239 and 8498.012 on LC3A [2] (compound 15.2588 nM titrated against LC3A); 4967.649 and 8590.938 at LC3A [2] (compound 30.5176 nM titrated against LC3A); 3893.892 and 7432.185 at LC3A [2] (compound 61.0352 nM titrated against LC3A); 3715.765 and 5942.313 at LC3A [2] (compound 122.07 nM titrated against LC3A); 3805.917 and 4785.866 at LC3A [2] (compound 244.141 nM titrated against LC3A); 2784.925 and 3093.111 at LC3A [2] (compound 488.281 nM titrated against LC3A). Further, the “Initial Fluorescence” value at LC3A [2] (compound 976.562 nM titrated against LC3A) is 3008.559 and 2759.079; at LC3A [2] (compound 1953.12 nM titrated against LC3A), 2614.532 and 2461.361; at LC3A [2] (compound 3906.25 nM titrated against LC3A), 2609.726 and 2127.302; on LC3A [2] (compound 7812.5 nM titrated against LC3A), 2627.775 and 2205.232; at LC3A [2] (compound 15625 nM titrated against LC3A), 2084.943 and 1892.122; at LC3A [2] (compound 31250 nM titrated against LC3A), 1913.624 and 1771.147. Also, the “Initial Fluorescence” value was 1934.175 and 2136.348 at LC3A [2] (compound 62500 nM titrated against LC3A); 2010.201 and 1874.865 on LC3A [2] (compound 125000 nM titrated against LC3A); 1863.832 and 1842.946 at LC3A [2] (compound 250000 nM titrated against LC3A); 1618.141 and 1654.997 at LC3A [2] (compound 500000 nM titrated against LC3A). The “NanoBRET signal / tracer displacement” value in data set [3] and in data set [4] was “No displacement” each time. In data set [5] (log concentration [M] -4.69897), the viability at 20 µM turned out to be 104%. Besides, the Cell viability in data set [5] (log concentration [M] -4.69897) stood at 92.5568; in data set [5] (log concentration [M] -5.12494) it was 95.6466; in data set [5] (log concentration [M] -5.60206), 97.1871; in data set [5] (log concentration [M] -6.00436), 90.9151; in data set [5] (log concentration [M] -6.52288), 93.3208; in data set [5] (log concentration [M] -6.90309), 92.1984. The Cell viability in data set [5] (log concentration [M] -7.30103) worked out at 94.2945; in data set [5] (log concentration [M] -7.78915), 89.5849; in data set [5] (log concentration [M] -8.06399), 99.4914; in data set [5] (log concentration [M] -8.30103), 88.3293; in data set [5] (log concentration [M] -8.67778), 90.0519. Also, in data set [5] (log concentration [M] -5.12494), the viability at 7.5 µM amounted to 94.8%. For the same compound, the viability at 2.5 µM in data set [5] (log concentration [M] -5.60206) was found to be 94.2%. Moreover, the viability at […] in data set [5] (log concentration [M] -6.00436) was 95.7%; in data set [5] (log concentration [M] -8.06399) it was 103%. The viability at 0.3 µM in data set [5] (log concentration [M] -6.52288) worked out at 104%. In addition, the viability at 0.125 µM in data set [5] (log concentration [M] -6.90309) turned out to be 101%. For the same compound, the viability at 0.05 µM in data set [5] (log concentration [M] -7.30103) was 103%. Also, in data set [5] (log concentration [M] -7.78915), the viability at 0.01625 µM came to 101%. The viability at 0.005 µM in data set [5] (log concentration [M] -8.30103) worked out at 99.7%. Moreover, the viability at 0.0021 µM in data set [5] (log concentration [M] -8.67778) turned out to be 100%. For the same compound, on LC3A [6], the “displacement of dye-linked tracer by parent compound” value is given as “no displacement”.
In the case of `CCCCCCC(Sc1nc(Cl)cc(Nc2nc(-c3ccc(C(=O)O)cc3)cs2)n1)C(=O)O` (stereo not shown) [compound 21], the “interaction with LC3/GABARAP family members in FP displacement assay” value in data set [1] is “interacted with all LC3/GABARAPs”.
